Experiments:
Assay in all cases: relative viability (nuclei count vs DMSO), 5 days (fraction); higher = more cells survive
[1] = compound: NC1(c2ccc(-c3nc4ccn5c(=O)[nH]nc5c4cc3-c3ccccc3)cc2)CCC1 [MK-2206] + C[C@@H](Oc1cc(-c2cnn(C3CCNCC3)c2)cnc1N)c1c(Cl)ccc(F)c1Cl [Crizotinib] (partner 1 µM)
Summary of the method: (§1)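 The day after seeding in 1536-well plates, lung cancer cell lines were treated by pin tool with a single drug, or with a fixed anchor-drug dose together with five library-drug doses (not always all listed) in √10 steps. After 5 days, a combined fix-and-stain solution (final 0.05% Triton X-100, 1% formaldehyde, 1 ug/ml Hoechst) was added. Nuclei counted on 4× images gave relative viability as treated counts over vehicle counts, reported as the median of duplicate plates.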

[2] = compound: NC1(c2ccc(-c3nc4ccn5c(=O)[nH]nc5c4cc3-c3ccccc3)cc2)CCC1 [MK-2206] + CS(=O)(=O)N1CCN(Cc2cc3nc(-c4cccc5[nH]ncc45)nc(N4CCOCC4)c3s2)CC1 [Pictilisib] (partner 1 µM)
Summary of the method: as §1

[3] = compound: NC1(c2ccc(-c3nc4ccn5c(=O)[nH]nc5c4cc3-c3ccccc3)cc2)CCC1 [MK-2206] + COc1cccc2cc(-c3nc([C@H]4CC[C@H](C(=O)O)CC4)n4ncnc(N)c34)[nH]c12 [OSI-027] (partner 0.5 µM)
Summary of the method: as §1

[4] = compound: CS(=O)(=O)N1CCN(Cc2cc3nc(-c4cccc5[nH]ncc45)nc(N4CCOCC4)c3s2)CC1 [Pictilisib] + COc1cc2c(Oc3ccc(NC(=O)C4(C(=O)Nc5ccc(F)cc5)CC4)cc3F)ccnc2cc1OCCCN1CCOCC1 [Foretinib] (partner 0.25 µM)
Summary of the method: as §1

[5] = compound: NC1(c2ccc(-c3nc4ccn5c(=O)[nH]nc5c4cc3-c3ccccc3)cc2)CCC1 [MK-2206] + Nc1ncn([C@H]2C[C@H](O)[C@@H](CO)O2)c(=O)n1 [Decitabine] (partner 2 µM)
Summary of the method: as §1

| Cell Line | relative viability ([1]; first compound 0.01 µM) | relative viability ([1]; first compound 0.03162 µM) | relative viability ([1]; first compound 0.3162 µM) | relative viability ([1]; first compound 1 µM) | relative viability ([2]; first compound 0.01 µM) | relative viability ([2]; first compound 0.03162 µM) | relative viability ([2]; first compound 0.3162 µM) | relative viability ([2]; first compound 1 µM) | relative viability ([3]; first compound 0.01 µM) | relative viability ([3]; first compound 0.03162 µM) | relative viability ([3]; first compound 0.3162 µM) | relative viability ([3]; first compound 1 µM) | relative viability ([4]; first compound 0.02 µM) | relative viability ([4]; first compound 0.06325 µM) | relative viability ([4]; first compound 0.6325 µM) | relative viability ([4]; first compound 2 µM) | relative viability ([5]; first compound 0.01 µM) | relative viability ([5]; first compound 0.03162 µM) | relative viability ([5]; first compound 0.3162 µM) | relative viability ([5]; first compound 1 µM) |
| --- | --- | --- | --- | --- | --- | --- | --- | --- | --- | --- | --- | --- | --- | --- | --- | --- | --- | --- | --- | --- |
| HCC-827 | 0.966 | 0.874 | 0.977 | 0.98 | 0.982 | 1.11 | 0.899 | 1.01 | 0.78 | 0.871 | 0.655 | 0.391 | 0.996 | 1.04 | 0.931 | 0.392 | 0.347 | 0.256 | 0.276 | 0.228 |
| PC-3 [JPC-3] | 0.973 | 0.98 | 0.946 | 1.03 | 0.774 | 0.874 | 0.776 | 0.676 | 0.825 | 0.749 | 0.6 | 0.641 | 1.01 | 1.09 | 0.931 | 0.827 | 0.806 | 0.807 | 0.855 | 0.852 |
| NCI-H1355 | 1.07 | 1.03 | 1.08 | 0.914 | 0.486 | 0.475 | 0.454 | 0.4 | 0.394 | 0.433 | 0.289 | 0.235 | 0.931 | 0.868 | 0.849 | 0.398 | 0.347 | 0.362 | 0.379 | 0.345 |
| NCI-H727 | 0.809 | 0.903 | 0.666 | 0.568 | 0.47 | 0.413 | 0.36 | 0.254 | 0.479 | 0.615 | 0.537 | 0.52 | 0.76 | 0.843 | 0.672 | 0.467 | 0.959 | 0.833 | 0.884 | 0.755 |
| NCI-H1975 | 0.96 | 0.866 | 0.855 | 0.894 | 0.267 | 0.259 | 0.24 | 0.232 | 0.745 | 0.611 | 0.42 | 0.381 | 0.834 | 0.902 | 0.603 | 0.25 | 0.387 | 0.346 | 0.36 | 0.323 |
| NCI-H460 | 0.86 | 0.905 | 0.855 | 0.893 | 0.355 | 0.307 | 0.294 | 0.222 | 0.642 | 0.521 | 0.321 | 0.455 | 1.01 | 0.978 | 0.883 | 0.243 | 0.491 | 0.506 | 0.513 | 0.419 |
| EPLC-272H | 0.951 | 0.928 | – | 1.01 | 0.292 | 0.333 | – | 0.336 | 0.31 | 0.259 | 0.26 | 0.266 | 0.711 | 0.687 | 0.376 | 0.173 | 0.392 | 0.345 | 0.364 | 0.392 |
| SK-LU-1 | 0.941 | 0.912 | 0.964 | 0.877 | 0.584 | 0.478 | 0.535 | 0.474 | 0.349 | 0.325 | 0.224 | 0.325 | 0.878 | 0.892 | 0.652 | 0.422 | 0.648 | 0.592 | 0.613 | 0.555 |
| NCI-H322M | 0.934 | 0.986 | 0.941 | 0.979 | 0.509 | 0.529 | 0.489 | 0.511 | 0.484 | 0.49 | 0.386 | 0.377 | 0.936 | 0.985 | 0.792 | 0.559 | 0.677 | 0.735 | 0.787 | 0.624 |
| NCI-H2405 | 0.79 | 0.858 | 0.83 | 0.786 | 0.418 | 0.421 | 0.361 | 0.282 | 0.661 | 0.641 | 0.56 | 0.452 | 1.01 | 0.965 | 0.847 | 0.562 | 0.766 | 0.788 | 0.72 | 0.74 |
| NCI-H1666 | 0.965 | 1.12 | 0.789 | 0.892 | 0.403 | 0.414 | 0.405 | 0.403 | 0.845 | 0.806 | 0.729 | 0.767 | 0.987 | 0.968 | 0.914 | 0.66 | 0.589 | 0.703 | 0.765 | 0.684 |
| NCI-H358 | 0.773 | 0.638 | 0.563 | 0.562 | 0.378 | 0.333 | 0.355 | 0.347 | 0.819 | 0.765 | 0.531 | 0.487 | 0.749 | 0.763 | 0.548 | 0.274 | 0.216 | 0.208 | 0.201 | 0.217 |
| H3255 | 0.833 | 0.913 | 0.729 | 0.616 | 0.477 | 0.45 | 0.399 | 0.384 | 0.635 | 0.624 | 0.481 | 0.413 | 0.813 | 0.884 | 0.571 | 0.494 | 0.611 | 0.628 | 0.51 | 0.502 |
| LCLC-103H | 0.989 | 0.963 | 0.99 | 1.04 | 0.642 | 0.688 | 0.54 | 0.701 | 0.476 | 0.459 | 0.445 | 0.408 | 0.77 | 0.634 | 0.403 | 0.393 | 0.721 | 0.755 | 0.735 | 0.691 |
| NCI-H2347 | 0.733 | 0.761 | 0.708 | 0.67 | 0.384 | 0.67 | 0.634 | 0.652 | 0.384 | 0.375 | 0.413 | 0.277 | 0.843 | 0.937 | 1.19 | 0.438 | 0.585 | 0.573 | 0.591 | 0.557 |
| LK-2 | 0.211 | 0.236 | 0.229 | 0.211 | 0.684 | 0.707 | 0.583 | 0.667 | 0.179 | 0.199 | 0.181 | 0.151 | 0.999 | 0.885 | 0.812 | 0.347 | 0.36 | 0.355 | 0.286 | 0.12 |

Source: the supplement of paper PMC10307832
